According to PMC5218480 (PLoS ONE, 2017):

Tested on: MV-4-11 cells
Test: Gene expression microarray analysis (Affymetrix PrimeView) and GSEA
Type: cell-based, human
Design: RFU PODN (11730768_x_at) / Fold change /veh PODN (11730768_x_at) / RFU LINC00158 (11744669_a_at) / Fold change /veh LINC00158 (11744669_a_at) / RFU DUSP10 (11751237_a_at) / Fold change /veh DUSP10 (11751237_a_at) / RFU ID3 (11757404_x_at) / Fold change /veh ID3 (11757404_x_at) / RFU PLEKHG5 (11737974_s_at) / Fold change /veh PLEKHG5 (11737974_s_at) / RFU LRRC4B (11730491_at) / Fold change /veh LRRC4B (11730491_at) / RFU GIMAP4 (11747438_a_at) / Fold change /veh GIMAP4 (11747438_a_at) / RFU KRT8 (11758183_x_at) / Fold change /veh KRT8 (11758183_x_at) / RFU CNN1 (11734310_a_at) / Fold change /veh CNN1 (11734310_a_at) / RFU VPS37D (11726825_at) / Fold change /veh VPS37D (11726825_at) / RFU C10orf10 (11716522_x_at) / Fold change /veh C10orf10 (11716522_x_at) / RFU KIR2DL2 /// KIR2DL4 /// KIR2DL5A /// KIR2DL5B /// KIR2DS1 /// KIR2DS2 /// KIR2DS3 /// KIR2DS4 /// KIR3DL3 /// KIR3DL3 /// KIR3DS1 (11738374_at) / Fold change /veh KIR2DL2 /// KIR2DL4 /// KIR2DL5A /// KIR2DL5B /// KIR2DS1 /// KIR2DS2 /// KIR2DS3 /// KIR2DS4 /// KIR3DL3 /// KIR3DL3 /// KIR3DS1 (11738374_at) / RFU C1QL1 (11718748_at) / Fold change /veh C1QL1 (11718748_at) / RFU TMPRSS4 (11747572_a_at) / Fold change /veh TMPRSS4 (11747572_a_at) / RFU HAMP (11756126_x_at) / Fold change /veh HAMP (11756126_x_at) / RFU RNFT2 (11725882_a_at) / Fold change /veh RNFT2 (11725882_a_at) / RFU NR4A2 (11747474_a_at) / Fold change /veh NR4A2 (11747474_a_at) / RFU ABCC12 (11746883_a_at) / Fold change /veh ABCC12 (11746883_a_at) / RFU TMEM136 (11760407_x_at) / Fold change /veh TMEM136 (11760407_x_at) / RFU CLDN22 /// WWC2 (11732394_at) / Fold change /veh CLDN22 /// WWC2 (11732394_at) / RFU HLA-DPB1 (11760878_x_at) / Fold change /veh HLA-DPB1 (11760878_x_at) / RFU SPINT1 (11716480_a_at) / Fold change /veh SPINT1 (11716480_a_at) / RFU GAP43 (11754022_s_at) / Fold change /veh GAP43 (11754022_s_at) / RFU A4GNT (11735810_at) / Fold change /veh A4GNT (11735810_at) / RFU PRB3 (11715151_x_at) / Fold change /veh PRB3 (11715151_x_at) / RFU TUBB4B (11761932_at) / Fold change /veh TUBB4B (11761932_at) / RFU CAPN14 (11732068_a_at) / Fold change /veh CAPN14 (11732068_a_at) / RFU TMCC2 (11721928_a_at) / Fold change /veh TMCC2 (11721928_a_at) / RFU IRGQ (11745062_a_at) / Fold change /veh IRGQ (11745062_a_at) / RFU FAM174B (11720279_a_at) / Fold change /veh FAM174B (11720279_a_at) / RFU TMPRSS4 (11748680_a_at) / Fold change /veh TMPRSS4 (11748680_a_at) / RFU FAM212B (11763350_a_at) / Fold change /veh FAM212B (11763350_a_at) / RFU PLEKHG5 (11743358_a_at) / Fold change /veh PLEKHG5 (11743358_a_at) / RFU ZSCAN30 (11745921_a_at) / Fold change /veh ZSCAN30 (11745921_a_at) / RFU CMKLR1 (11741424_a_at) / Fold change /veh CMKLR1 (11741424_a_at) / RFU LOC101060620 /// MAPK8IP1 (11723275_at) / Fold change /veh LOC101060620 /// MAPK8IP1 (11723275_at) / RFU SPTSSB (11747773_x_at) / Fold change /veh SPTSSB (11747773_x_at) / RFU PRSS12 (11739890_at) / Fold change /veh PRSS12 (11739890_at) / RFU BIN1 (11741810_x_at) / Fold change /veh BIN1 (11741810_x_at) / RFU WNT11 (11732464_a_at) / Fold change /veh WNT11 (11732464_a_at) / RFU C10orf10 (11716521_a_at) / Fold change /veh C10orf10 (11716521_a_at) / RFU C5orf56 (11738089_at) / Fold change /veh C5orf56 (11738089_at) / RFU CYB561 (11721691_x_at) / Fold change /veh CYB561 (11721691_x_at) / RFU ANKRD19P (11752326_a_at) / Fold change /veh ANKRD19P (11752326_a_at) / RFU OR2T12 /// OR2T33 /// OR2T8 (11738714_s_at) / Fold change /veh OR2T12 /// OR2T33 /// OR2T8 (11738714_s_at) / RFU VCAN (11748164_a_at) / Fold change /veh VCAN (11748164_a_at) / RFU JSRP1 (11732532_at) / Fold change /veh JSRP1 (11732532_at) / RFU KRTAP10-11 (11738290_x_at) / Fold change /veh KRTAP10-11 (11738290_x_at) / RFU MYO3A (11730013_a_at) / Fold change /veh MYO3A (11730013_a_at) / RFU EBF3 (11725865_a_at) / Fold change /veh EBF3 (11725865_a_at) / RFU CAMK2N1 (11719241_x_at) / Fold change /veh CAMK2N1 (11719241_x_at) / RFU C5orf56 (11738088_a_at) / Fold change /veh C5orf56 (11738088_a_at) / RFU OLFML3 (11715873_a_at) / Fold change /veh OLFML3 (11715873_a_at) / RFU LOC100653217 /// NTM (11731650_a_at) / Fold change /veh LOC100653217 /// NTM (11731650_a_at) / RFU MAPK11 (11762145_a_at) / Fold change /veh MAPK11 (11762145_a_at) / RFU FIZ1 (11724087_x_at) / Fold change /veh FIZ1 (11724087_x_at) / RFU OASL (11726364_x_at) / Fold change /veh OASL (11726364_x_at) / RFU SOX15 (11748057_x_at) / Fold change /veh SOX15 (11748057_x_at) / RFU CD79A (11719716_a_at) / Fold change /veh CD79A (11719716_a_at) / RFU HIST1H1D (11736915_at) / Fold change /veh HIST1H1D (11736915_at) / RFU CASKIN2 (11723855_a_at) / Fold change /veh CASKIN2 (11723855_a_at) / RFU LOC730098 (11760151_x_at) / Fold change /veh LOC730098 (11760151_x_at) / RFU OR4N2 (11742367_at) / Fold change /veh OR4N2 (11742367_at) / RFU PRRT2 (11749266_a_at) / Fold change /veh PRRT2 (11749266_a_at) / RFU SNX32 (11753110_a_at) / Fold change /veh SNX32 (11753110_a_at) / RFU CDHR5 (11726645_a_at) / Fold change /veh CDHR5 (11726645_a_at) / RFU RCAN1 (11760418_a_at) / Fold change /veh RCAN1 (11760418_a_at) / RFU FAM167A (11723789_a_at) / Fold change /veh FAM167A (11723789_a_at) / RFU FAM26E (11764081_at) / Fold change /veh FAM26E (11764081_at) / RFU ISYNA1 (11749810_s_at) / Fold change /veh ISYNA1 (11749810_s_at) / RFU ACY1 (11761880_at) / Fold change /veh ACY1 (11761880_at) / RFU 11764098_at / Fold change /veh 11764098_at / RFU SAMD14 (11745864_x_at) / Fold change /veh SAMD14 (11745864_x_at) / RFU NPB (11741838_a_at) / Fold change /veh NPB (11741838_a_at) / RFU TMPRSS6 (11731388_a_at) / Fold change /veh TMPRSS6 (11731388_a_at) / RFU KRTAP10-2 (11738614_at) / Fold change /veh KRTAP10-2 (11738614_at) / RFU ARHGAP8 /// PRR5-ARHGAP8 (11727945_x_at) / Fold change /veh ARHGAP8 /// PRR5-ARHGAP8 (11727945_x_at) / RFU KRTAP5-7 /// NADSYN1 (11734609_at) / Fold change /veh KRTAP5-7 /// NADSYN1 (11734609_at) / RFU RASL12 (11751679_a_at) / Fold change /veh RASL12 (11751679_a_at) / RFU CDKN2B (11736163_a_at) / Fold change /veh CDKN2B (11736163_a_at) / RFU PRF1 (11729649_at) / Fold change /veh PRF1 (11729649_at) / RFU, ZNF638 /// ZNF638-IT1 / Fold change vs veh, ZNF638 /// ZNF638-IT1 / RFU, PANK3 / Fold change vs veh, PANK3 / RFU, SH3YL1 / Fold change vs veh, SH3YL1 / RFU, ZEB2 / Fold change vs veh, ZEB2 / RFU, NRIP1 / Fold change vs veh, NRIP1 / RFU, PTTG1IP / Fold change vs veh, PTTG1IP / RFU, CAPN2 / Fold change vs veh, CAPN2 / RFU, MED14 / Fold change vs veh, MED14 / RFU, SNORA58 / Fold change vs veh, SNORA58 / RFU, C1orf63 / Fold change vs veh, C1orf63 / RFU, LRRFIP1 / Fold change vs veh, LRRFIP1 / RFU, NDUFAF7 / Fold change vs veh, NDUFAF7 / RFU, SLC12A2 / Fold change vs veh, SLC12A2 / RFU, IBTK / Fold change vs veh, IBTK / RFU, ESF1 / Fold change vs veh, ESF1 / Fold change vs veh, TMEM50B / RFU, TAOK1 / Fold change vs veh, TAOK1 / RFU, ACBD3 / Fold change vs veh, ACBD3 / RFU, TMA16 / Fold change vs veh, TMA16 / RFU, RWDD3 / Fold change vs veh, RWDD3 / RFU, BCAT1 / Fold change vs veh, BCAT1 / RFU, EDEM3 / Fold change vs veh, EDEM3 / RFU, TMEM33 / Fold change vs veh, TMEM33 / RFU, WDR75 / Fold change vs veh, WDR75 / RFU, AHCTF1 / Fold change vs veh, AHCTF1 / RFU, TFRC / Fold change vs veh, TFRC / RFU, ZDHHC17 / Fold change vs veh, ZDHHC17 / RFU, NOM1 / Fold change vs veh, NOM1 / RFU, ARL8B / Fold change vs veh, ARL8B / RFU, ZBTB11 / Fold change vs veh, ZBTB11 / RFU, TAMM41 / Fold change vs veh, TAMM41 / RFU, KIAA1704 /// LOC100996395 / Fold change vs veh, KIAA1704 /// LOC100996395 / RFU, ING1 / Fold change vs veh, ING1 / RFU, TRMT61B / Fold change vs veh, TRMT61B / RFU, FUBP3 / Fold change vs veh, FUBP3 / RFU, TP53 / Fold change vs veh, TP53 / RFU, TNKS2 / Fold change vs veh, TNKS2 / RFU, ZFP14 / Fold change vs veh, ZFP14 / RFU, ACTR2 / Fold change vs veh, ACTR2 / RFU, PPP3R1 / Fold change vs veh, PPP3R1 / RFU, PIK3R1 / Fold change vs veh, PIK3R1 / RFU, HNRNPA1 / Fold change vs veh, HNRNPA1 / RFU, RNF170 / Fold change vs veh, RNF170 / RFU, ZNF28 / Fold change vs veh, ZNF28 / RFU, RNGTT / Fold change vs veh, RNGTT / RFU, OGT / Fold change vs veh, OGT / RFU, BRD1 / Fold change vs veh, BRD1 / RFU, MARS / Fold change vs veh, MARS / RFU, ZNF655 / Fold change vs veh, ZNF655 / RFU, FAHD1 / Fold change vs veh, FAHD1 / RFU, BDP1 / Fold change vs veh, BDP1 / RFU, LRRCC1 / Fold change vs veh, LRRCC1 / RFU, ARID1A / Fold change vs veh, ARID1A / RFU, ZNF146 / Fold change vs veh, ZNF146 / RFU, ZNF330 / Fold change vs veh, ZNF330 / RFU, GPN3 / Fold change vs veh, GPN3 / RFU, C9orf123 / Fold change vs veh, C9orf123 / RFU, N4BP2L2 / Fold change vs veh, N4BP2L2 / RFU, ARFIP1 / Fold change vs veh, ARFIP1 / RFU, FAM179B / Fold change vs veh, FAM179B / RFU, BCL10 / Fold change vs veh, BCL10 / RFU, UHRF1BP1L / Fold change vs veh, UHRF1BP1L / RFU, BET1 / Fold change vs veh, BET1 / RFU, CNOT2 / Fold change vs veh, CNOT2 / RFU, ZNF268 / Fold change vs veh, ZNF268 / Fold change vs veh, ZNF507 / RFU, DGCR2 / Fold change vs veh, DGCR2 / RFU, WDSUB1 / Fold change vs veh, WDSUB1 / Fold change vs veh, HSP90B1 /// MIR3652 / RFU, ADSS / Fold change vs veh, ADSS / RFU, GK / Fold change vs veh, GK / RFU, ZNF148 / Fold change vs veh, ZNF148 / RFU, TAF9 / Fold change vs veh, TAF9 / RFU, SLC1A5 / Fold change vs veh, SLC1A5 / RFU, SLMO2 / Fold change vs veh, SLMO2 / RFU, ABCC4 / Fold change vs veh, ABCC4 / RFU, LOC101060439 /// RAP1B / Fold change vs veh, LOC101060439 /// RAP1B / RFU, RFX7 / Fold change vs veh, RFX7 / RFU, GTPBP10 / Fold change vs veh, GTPBP10 / RFU, CNEP1R1 / Fold change vs veh, CNEP1R1 / RFU, BIVM-ERCC5 /// ERCC5 / Fold change vs veh, BIVM-ERCC5 /// ERCC5 / RFU, ILF3 / Fold change vs veh, ILF3 / RFU 11762660_at / Fold change /veh 11762660_at / RFU VCAN (11757783_s_at) / Fold change /veh VCAN (11757783_s_at) / RFU DDX43 (11728927_at) / Fold change /veh DDX43 (11728927_at) / RFU KRT8 (11758188_x_at) / Fold change /veh KRT8 (11758188_x_at) / RFU NKD1 (11759106_at) / Fold change /veh NKD1 (11759106_at) / RFU SRD5A1 (11742802_a_at) / Fold change /veh SRD5A1 (11742802_a_at) / RFU TPSAB1 /// TPSB2 (11721975_s_at) / Fold change /veh TPSAB1 /// TPSB2 (11721975_s_at) / RFU GSTM3 (11746129_a_at) / Fold change /veh GSTM3 (11746129_a_at) / RFU IL23R (11737362_x_at) / Fold change /veh IL23R (11737362_x_at) / RFU TMEM51 (11727254_a_at) / Fold change /veh TMEM51 (11727254_a_at) / RFU PIWIL2 (11732686_x_at) / Fold change /veh PIWIL2 (11732686_x_at) / RFU ORM1 (11744905_x_at) / Fold change /veh ORM1 (11744905_x_at) / RFU CCDC152 (11743942_at) / Fold change /veh CCDC152 (11743942_at) / RFU ECM1 (11717891_a_at) / Fold change /veh ECM1 (11717891_a_at) / RFU IL23R (11748794_a_at) / Fold change /veh IL23R (11748794_a_at) / RFU TNFAIP8L3 (11732012_x_at) / Fold change /veh TNFAIP8L3 (11732012_x_at) / RFU MBOAT4 (11741988_at) / Fold change /veh MBOAT4 (11741988_at) / RFU 11764193_at / Fold change /veh 11764193_at / RFU TMEM53 (11763286_at) / Fold change /veh TMEM53 (11763286_at) / RFU MAGEB2 (11727129_at) / Fold change /veh MAGEB2 (11727129_at) / RFU TMEM200A (11744735_a_at) / Fold change /veh TMEM200A (11744735_a_at) / RFU CCDC152 (11751479_a_at) / Fold change /veh CCDC152 (11751479_a_at) / RFU FAM211A (11726209_a_at) / Fold change /veh FAM211A (11726209_a_at) / RFU RGS16 (11746705_a_at) / Fold change /veh RGS16 (11746705_a_at) / RFU VCAN (11755009_s_at) / Fold change /veh VCAN (11755009_s_at) / RFU RHOB (11743442_s_at) / Fold change /veh RHOB (11743442_s_at) / RFU RGS16 (11720943_a_at) / Fold change /veh RGS16 (11720943_a_at) / RFU RGS16 (11720944_at) / Fold change /veh RGS16 (11720944_at) / RFU, VPS4B / Fold change vs veh, VPS4B / RFU, CREB1 / Fold change vs veh, CREB1 / RFU, DNAJC13 / Fold change vs veh, DNAJC13 / RFU, GNAQ / Fold change vs veh, GNAQ / RFU, CDK5R1 / Fold change vs veh, CDK5R1 / RFU, ZRANB3 / Fold change vs veh, ZRANB3 / RFU, CUL4A / Fold change vs veh, CUL4A / RFU, CCNY / Fold change vs veh, CCNY / RFU, UFL1 / Fold change vs veh, UFL1 / RFU, COG3 / Fold change vs veh, COG3 / RFU, DIAPH2 / Fold change vs veh, DIAPH2 / RFU, SKA2 / Fold change vs veh, SKA2 / RFU, AFF3 / Fold change vs veh, AFF3 / RFU, LMF1 / Fold change vs veh, LMF1 / RFU, IPO11 / Fold change vs veh, IPO11 / RFU, DFFB / Fold change vs veh, DFFB / RFU, FOXP1 / Fold change vs veh, FOXP1 / RFU, CARD8 / Fold change vs veh, CARD8 / RFU, STRN3 / Fold change vs veh, STRN3 / RFU, ADK / Fold change vs veh, ADK / RFU, RASSF2 / Fold change vs veh, RASSF2 / RFU, WIPF1 / Fold change vs veh, WIPF1 / RFU, LARP1B / Fold change vs veh, LARP1B / RFU, RASA1 / Fold change vs veh, RASA1 / RFU, RB1 / Fold change vs veh, RB1 / RFU, PPFIA1 / Fold change vs veh, PPFIA1 / RFU, MAT2A / Fold change vs veh, MAT2A / RFU, CCT5 / Fold change vs veh, CCT5 / RFU, WDR92 / Fold change vs veh, WDR92 / RFU, CUX1 / Fold change vs veh, CUX1 / RFU, TTC7A / Fold change vs veh, TTC7A / RFU, TMEM135 / Fold change vs veh, TMEM135 / RFU, DEPTOR / Fold change vs veh, DEPTOR / RFU, CPM / Fold change vs veh, CPM / RFU, DNAJB6 / Fold change vs veh, DNAJB6 / RFU, CACNA2D3 / Fold change vs veh, CACNA2D3 / RFU, DTX4 / Fold change vs veh, DTX4 / RFU, TFCP2 / Fold change vs veh, TFCP2 / RFU, GMCL1 /// GMCL1P1 / Fold change vs veh, GMCL1 /// GMCL1P1 / RFU, AEBP2 / Fold change vs veh, AEBP2 / RFU, SNHG1 /// SNORD22 /// SNORD25 /// SNORD26 /// SNORD27 /// SNORD28 /// SNORD29 /// SNORD31 / Fold change vs veh, SNHG1 /// SNORD22 /// SNORD25 /// SNORD26 /// SNORD27 /// SNORD28 /// SNORD29 /// SNORD31 / Fold change (Aza/veh), C12orf56 (ProbeSet 11735607_a_at) / Fold change (ACY-1035/veh), C12orf56 (ProbeSet 11735607_a_at) / Fold change (Aza/veh), FGFR1OP (ProbeSet 11751329_s_at) / Fold change (ACY-1035/veh), FGFR1OP (ProbeSet 11751329_s_at) / Fold change (Aza/veh), VPS36 (ProbeSet 11739960_a_at) / Fold change (ACY-1035/veh), VPS36 (ProbeSet 11739960_a_at) / RFU SYPL1 (11715823_x_at) / Fold change /veh SYPL1 (11715823_x_at) / RFU IGFBP7 (11715501_s_at) / Fold change /veh IGFBP7 (11715501_s_at) / RFU REEP3 (11722064_at) / Fold change /veh REEP3 (11722064_at) / RFU IGLL1 (11728026_x_at) / Fold change /veh IGLL1 (11728026_x_at): dose or concentration left out as unconfirmed
Details: MV-4-11 cells, 48 hours

Nc1ccc(-c2cccs2)cc1NC(=O)c1ccc2c(c1)cc(C1CC1)n2CCN1CCOCC1 [ACY-1035]
RFU KRT8 (11758183_x_at): 18.67 RFU
